Data reported in PubChem BioAssay (NCI).
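A five-concentration, 48-hour dose response in 96-well plates underlies each endpoint, interpolated linearly between surrounding concentrations. The concentration for full growth arrest is given as TGI.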

How the values were obtained:
Assay in all cases: inhibition of tumour cell growth, NCI panel, 48 h
NCI-H460 lung = test system: NCI-H460 lung
SR leukemia = test system: SR leukemia
M14 melanoma = test system: M14 melanoma
HCC-2998 colon = test system: HCC-2998 colon
UACC-62 melanoma = test system: UACC-62 melanoma
TK-10 renal = test system: TK-10 renal
KM12 colon = test system: KM12 colon
SK-MEL-2 melanoma = test system: SK-MEL-2 melanoma
A549 NSCLC = test system: A549 NSCLC
MDA-MB-231 breast = test system: MDA-MB-231 breast
COLO 205 colon = test system: COLO 205 colon
SNB-75 CNS = test system: SNB-75 CNS
HS 578T breast = test system: HS 578T breast
OVCAR-3 ovarian = test system: OVCAR-3 ovarian

| SMILES | TGI (NCI-H460 lung) [µM] | TGI (SR leukemia) [µM] | TGI (M14 melanoma) [µM] | TGI (HCC-2998 colon) [µM] | TGI (UACC-62 melanoma) [µM] | TGI (TK-10 renal) [µM] | TGI (KM12 colon) [µM] | TGI (SK-MEL-2 melanoma) [µM] | TGI (A549 NSCLC) [µM] | TGI (MDA-MB-231 breast) [µM] | TGI (COLO 205 colon) [µM] | TGI (SNB-75 CNS) [µM] | TGI (HS 578T breast) [µM] | TGI (OVCAR-3 ovarian) [µM] |
| --- | --- | --- | --- | --- | --- | --- | --- | --- | --- | --- | --- | --- | --- | --- |
| O=c1[nH]nc(-c2ccccc2)n1-n1cccc1 | > 100 | 97 | > 100 | > 100 | > 100 | > 100 | > 100 | > 100 | > 100 | > 100 | > 100 | > 100 | > 100 | > 100 |
| COc1ccc2nc3c([N+](=O)[O-])ccc4c3c(c2c1)N=CN4CCN(C)C | > 34.1 | 0.855 | 18.7 | 20.3 | 27.4 | 21.1 | 15.6 | 31.6 | 19.2 | 10.7 | 10.1 | 12.1 | 28.1 | 17 |
| c1cc2cc(Cc3ccc4[nH]ccc4c3)ccc2[nH]1 | 31.1 | 39.2 | 37.7 | 28.8 | 38.9 | 52.3 | 30.9 | 44.3 | 34.8 | 33.8 | 33.9 | 38.6 | 66.6 | 32.9 |
| CCOC(=O)C12CCC(c3c(C)cccc3C)(O1)C(C(=O)OC)=C2C(=O)OC (stereo unspecified) | > 10 | 6.06 | > 9.53 | > 10 | > 10 | > 10 | > 10 | > 10 | > 10 | 9.93 | 5.08 | 9.85 | > 9.49 | 4.2 |
| CCOC(=O)Cc1ccc(Nc2nc3cc(F)c(F)cc3nc2C(=O)OCC)cc1 | > 100 | > 100 | > 100 | 69.6 | > 100 | > 100 | > 100 | 92.2 | > 100 | 9.08 | > 100 | > 100 | > 100 | > 100 |
| CSc1c(S(C)=O)c2ccccc2n1C (stereo unspecified) | > 100 | > 100 | > 100 | > 100 | > 100 | > 100 | > 100 | > 100 | > 100 | > 100 | > 100 | > 100 | > 100 | > 100 |
| Cc1ccc(/C=C2\CCS(=O)(=O)c3ccccc3C2=O)cc1 | 31.3 | 63.7 | 73.6 | 28.9 | 33.4 | 30.9 | 30.6 | 44 | > 100 | 34.6 | 30.2 | 32.9 | > 100 | 37.7 |
| Cc1cc(S(=O)(=O)Nc2nnc3c(Cl)cc(C(F)(F)F)cn23)c(S)cc1Cl | > 100 | > 100 | > 100 | > 100 | > 100 | > 100 | > 100 | > 100 | > 100 | > 100 | > 100 | 9.12 | > 100 | > 100 |
| COc1ccc(C(SCCO)(c2ccc(OC)cc2)c2ccc(OC)cc2)cc1 | 35.8 | 26.7 | 38.5 | 30.5 | 30.1 | 55 | 71.1 | 31.7 | 69.3 | 46.6 | 25.7 | 61.1 | 44.7 | 28.4 |
